In patent US12421253B2 (Mirati Therapeutics, Inc., priority 2020, dated 2025):

How the values were obtained:
[1] = biological target: T1, KRas^G12D (Homo sapiens, UniProt P01116, G12D); assay: KRas binding assay (TR-FRET displacement of Cy5 labelled tracer)
T1 construct: […]; biotin (biotinylated); purchased Accelegan Inc

[2] = test system: MKN1 cells, pERK; assay: Inhibition of KRas phosphorylation of ERK (Cisbio HTRF Advanced pERK assay); type: cell-based; settings: Homo sapiens, MKN-1, 3 h, read-out: Inhibition (HTRF IC50 nM) of KRas-mediated Phosphorylation of ERK, MKN1
In short: (§1)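 pERK measured by HTRF in lysates from cells treated 3 h with compound, 10 uM top, 3-fold steps, 10 doses, 0.8% DMSO final. Cells (6,000/well, RPMI 10% FBS) had been plated overnight at 37 °C; 0.2 uM trametinib defined minimum signal; antibody detection 2 h at room temperature.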

[3] = test system: ASPC1 cells, pERK; assay: as above; type: cell-based; settings: Homo sapiens, ASPC1, 3 h, AsPC-1 cells, read-out: Inhibition (HTRF IC50 nM) of KRas-mediated Phosphorylation of ERK, AsPC-1
In short: as §1

[4] = test system: A549 cells, pERK; assay: as above; type: cell-based; settings: Homo sapiens, 3 hrs, read-out: Inhibition (HTRF IC50 nM) of KRas-mediated Phosphorylation of ERK, A549
In short: as §1

[5] = test system: H727 cells, pERK; assay: as above; type: cell-based; settings: Homo sapiens, NCI-H727, 3 h, read-out: Inhibition (HTRF IC50 nM) of KRas-mediated Phosphorylation of ERK, H727
In short: as §1

[6] = test system: HCT116 cells, pERK; assay: as above; type: cell-based; settings: Homo sapiens, HCT-116, 3 hrs, read-out: Inhibition (HTRF IC50 nM) of KRas-mediated Phosphorylation of ERK, HCT116
In short: as §1

[7] = test system: H358 cells, pERK; assay: as above; type: cell-based; settings: Homo sapiens, NCI-H358, 3 hrs, read-out: Inhibition (HTRF IC50 nM) of KRas-mediated Phosphorylation of ERK, H358
In short: as §1

[8] = test system: H460 cells, pERK; assay: as above; type: cell-based; settings: Homo sapiens, NCI-H460, 3 hrs, read-out: Inhibition (HTRF IC50 nM) of KRas-mediated Phosphorylation of ERK, H460
In short: as §1

[9] = test system: PSN1 cells, pERK; assay: as above; type: cell-based; settings: Homo sapiens, PSN1, 3 h, read-out: Inhibition (HTRF IC50 nM) of KRas-mediated Phosphorylation of ERK, PSN1
In short: as §1

[10] = biological target: T2, KRas^G12V (Homo sapiens, UniProt P01116, G12V); assay: KRas binding assay (TR-FRET displacement of Cy5 labelled tracer)
T2 construct: […]; biotin (biotinylated); purchased Accelegan Inc

[11] = biological target: T3, KRas^G12R (Homo sapiens, UniProt P01116, G12R); assay: as above
T3 construct: […]; biotin (biotinylated); purchased Accelegan Inc

[12] = test system: AsPC-1 (G12D) cells, phospho-ERK; assay: Inhibition of KRas-mediated phosphorylation of ERK (phospho-ERK/GAPDH antibody detection, LI-COR); type: cell-based; settings: Homo sapiens, ASPC1, 3 hours
In short: (§2)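 Cells seeded 20,000/well, attached 12-14 h, then compound (0.5% DMSO) for 3 h. Formaldehyde-fixed, methanol-permeabilized cells stained for phospho-ERK (Thr202/Tyr204) and GAPDH; infrared imaging. Ratio expressed as % of DMSO control; IC50 from 4-parameter fit.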

[13] = test system: NCI-H460 (Q61H) cells, phospho-ERK; assay: as above; type: cell-based; settings: Homo sapiens, 3 hours
In short: as §2

[14] = test system: NCI-H727 (G12V) cells, phospho-ERK; assay: as above; type: cell-based; settings: Homo sapiens, 3 hours
In short: as §2

T2 sequence (P01116 1-169 isoform P01116-2 G12V): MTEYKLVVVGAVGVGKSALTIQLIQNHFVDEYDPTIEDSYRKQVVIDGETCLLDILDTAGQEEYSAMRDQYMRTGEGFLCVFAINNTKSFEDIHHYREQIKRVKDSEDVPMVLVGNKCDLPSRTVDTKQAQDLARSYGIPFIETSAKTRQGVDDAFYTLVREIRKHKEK
T3 sequence (P01116 1-169 isoform P01116-2 G12R): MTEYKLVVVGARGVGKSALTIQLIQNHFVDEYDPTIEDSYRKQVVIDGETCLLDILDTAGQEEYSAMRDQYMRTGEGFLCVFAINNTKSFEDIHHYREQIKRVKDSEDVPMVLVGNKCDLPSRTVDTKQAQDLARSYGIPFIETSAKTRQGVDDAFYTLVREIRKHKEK
T1 sequence (P01116 1-169 isoform P01116-2 G12D): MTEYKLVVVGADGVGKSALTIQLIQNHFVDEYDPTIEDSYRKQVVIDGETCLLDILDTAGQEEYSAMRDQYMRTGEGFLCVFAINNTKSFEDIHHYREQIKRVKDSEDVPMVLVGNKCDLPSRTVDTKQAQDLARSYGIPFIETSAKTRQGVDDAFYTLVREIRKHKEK

| SMILES | IC50 [1] [nM] | IC50 [2] [nM] | IC50 [3] [nM] | IC50 [4] [nM] | IC50 [5] [nM] | IC50 [6] [nM] | IC50 [7] [nM] | IC50 [8] [nM] | IC50 [9] [nM] | IC50 [10] [nM] | IC50 [11] [nM] | IC50 [12] [nM] | IC50 [13] [nM] | IC50 [14] [nM] |
| --- | --- | --- | --- | --- | --- | --- | --- | --- | --- | --- | --- | --- | --- | --- |
| CCc1c(F)ccc2cc(O)cc(N3CCc4c(nc(OCC5(CN(C)C)CC5)nc4N4CCC[C@@](C)(O)C4)C3)c12 [Example 199, (R)-1-(2-((1-((dimethylamino)methyl)cyclopropyl)methoxy)-7-(8-ethyl-7-fluoro-3-hydroxynaphthalen-1-yl)-5,6,7,8-tetrahydropyrido[3,4-d]pyrimidin-4-yl)-3-methylpiperidin-3-ol] | ≤ 2 | 31 | 43 | 201 | 262 | 441 | 65 | 242 | 2500 | ≤ 2 | ≤ 2 | – | – | – |
| CCc1c(F)ccc2cc(O)cc(N3CCc4c(nc(OC[C@@]56CCCN5C[C@H](F)C6)nc4N4CCCC(O)CC4)C3)c12 (stereo partly drawn) [Example 30, 1-(7-(8-ethyl-7-fluoro-3-hydroxynaphthalen-1-yl)-2-(((2R,7aS)-2-fluorohexahydro-1H-pyrrolizin-7a-yl)methoxy)-5,6,7,8-tetrahydropyrido[3,4-d]pyrimidin-4-yl)azepan-4-ol] | ≤ 2 | 16 | 86 | – | 227 | 480 | 83 | 203 | 3510 | ≤ 2 | ≤ 2 | 447 | 309 | 399 |
| CCc1c(F)ccc2cc(O)cc(N3CCc4c(nc(OC[C@@]56CCCN5C[C@H](F)C6)nc4N4CCCn5nc(C(=O)N(C)C)cc5C4)C3)c12 [Example 66, 5-(7-(8-ethyl-7-fluoro-3-hydroxynaphthalen-1-yl)-2-(((2R,7aS)-2-fluorohexahydro-1H-pyrrolizin-7a-yl)methoxy)-5,6,7,8-tetrahydropyrido[3,4-d]pyrimidin-4-yl)-N,N-dimethyl-5,6,7,8-tetrahydro-4H-pyrazolo[1,5-a][1,4]diazepine-2-carboxamide] | ≤ 2 | 1 | 1 | 5 | 5 | 62 | 2 | 36 | – | ≤ 2 | ≤ 2 | – | – | – |
| CCc1c(F)ccc2cc(O)cc(N3CCc4c(nc(OC[C@@]56CCCN5C[C@H](F)C6)nc4N4CCCn5nc(C(=O)N6CCOCC6)cc5C4)C3)c12 [Example 193, (5-(7-(8-ethyl-7-fluoro-3-hydroxynaphthalen-1-yl)-2-(((2R,7aS)-2-fluorohexahydro-1H-pyrrolizin-7a-yl)methoxy)-5,6,7,8-tetrahydropyrido[3,4-d]pyrimidin-4-yl)-5,6,7,8-tetrahydro-4H-pyrazolo[1,5-a][1,4]diazepin-2-yl)(morpholino)methanone] | ≤ 2 | 4 | 3 | – | 5 | 74 | 2 | 38 | 2100 | ≤ 2 | ≤ 2 | – | – | – |
| CCc1c(F)ccc2cc(O)cc(N3CCc4c(nc(OC[C@@]56CCCN5C[C@H](F)C6)nc4N4CCCn5nc(C(=O)N6CCCC6)cc5C4)C3)c12 [Example 191, (5-(7-(8-ethyl-7-fluoro-3-hydroxynaphthalen-1-yl)-2-(((2R,7aS)-2-fluorotetrahydro-1H-pyrrolizin-7a(5H)-yl)methoxy)-5,6,7,8-tetrahydropyrido[3,4-d]pyrimidin-4-yl)-5,6,7,8-tetrahydro-4H-pyrazolo[1,5-a][1,4]diazepin-2-yl)(pyrrolidin-1-yl)methanone] | ≤ 2 | 10 | 3 | – | 3 | – | 3 | 33 | 2960 | 52 | ≤ 2 | – | – | – |
| CCc1c(F)ccc2cc(O)cc(N3CCc4c(nc(OC[C@@]56CCCN5C[C@H](F)C6)nc4N4CCCn5nc(C(=O)N(C)C)c(C)c5C4)C3)c12 [Example 189, 5-(7-(8-ethyl-7-fluoro-3-hydroxynaphthalen-1-yl)-2-(((2R,7aS)-2-fluorotetrahydro-1H-pyrrolizin-7a(5H)-yl)methoxy)-5,6,7,8-tetrahydropyrido[3,4-d]pyrimidin-4-yl)-N,N,3-trimethyl-5,6,7,8-tetrahydro-4H-pyrazolo[1,5-a][1,4]diazepine-2-carboxamide] | ≤ 2 | 4 | 2 | – | 3 | – | 1 | 39 | 2680 | 52 | ≤ 2 | – | – | – |

Second part, led by results:

| IC50 [1] [nM] | IC50 [2] [nM] | IC50 [3] [nM] | IC50 [4] [nM] | IC50 [5] [nM] | IC50 [6] [nM] | IC50 [7] [nM] | IC50 [8] [nM] | IC50 [9] [nM] | IC50 [10] [nM] | IC50 [11] [nM] | SMILES | IC50 [12] [nM] | IC50 [13] [nM] | IC50 [14] [nM] |
| --- | --- | --- | --- | --- | --- | --- | --- | --- | --- | --- | --- | --- | --- | --- |
| ≤ 2 | 19 | 92 | 206 | 300 | 531 | 27 | 293 | 1260 | ≤ 2 | 3 | O=C1NCC2(CCCN(c3nc(OC[C@@]45CCCN4C[C@H](F)C5)nc4c3CCN(c3cc(O)cc5ccc(F)c(Br)c35)C4)C2)N1 (stereo partly drawn) [Example 216, 7-(7-(8-bromo-7-fluoro-3-hydroxynaphthalen-1-yl)-2-(((2R,7aS)-2-fluorohexahydro-1H-pyrrolizin-7a-yl)methoxy)-5,6,7,8-tetrahydropyrido[3,4-d]pyrimidin-4-yl)-1,3,7-triazaspiro[4.5]decan-2-one] | – | – | – |
| ≤ 2 | 4 | 15 | 25 | 81 | 125 | 11 | 69 | 325 | ≤ 2 | ≤ 2 | CCc1c(F)ccc2cc(O)cc(N3CCc4c(nc(OC[C@@]56CCCN5C[C@H](F)C6)nc4N4CCCC5(CNC(=O)N5)C4)C3)c12 (stereo partly drawn) [Example 62, 7-(7-(8-ethyl-7-fluoro-3-hydroxynaphthalen-1-yl)-2-(((2R,7aS)-2-fluorohexahydro-1H-pyrrolizin-7a-yl)methoxy)-5,6,7,8-tetrahydropyrido[3,4-d]pyrimidin-4-yl)-1,3,7-triazaspiro[4.5]decan-2-one] | – | – | – |
| ≤ 2 | 3 | 23 | – | 82 | 158 | 9 | 56 | 328 | ≤ 2 | ≤ 2 | O=S1(=O)NCC2(CCCN(c3nc(OC[C@@]45CCCN4C[C@H](F)C5)nc4c3CCN(c3cc(O)cc5ccc(F)c(Br)c35)C4)C2)N1 (stereo partly drawn) [Example 225, 7-(7-(8-bromo-7-fluoro-3-hydroxynaphthalen-1-yl)-2-(((2R,7aS)-2-fluorohexahydro-1H-pyrrolizin-7a-yl)methoxy)-5,6,7,8-tetrahydropyrido[3,4-d]pyrimidin-4-yl)-2-thia-1,3,7-triazaspiro[4.5]decane 2,2-dioxide] | – | – | – |
| ≤ 2 | 7 | 45 | – | 43 | – | 22 | 169 | 2790 | ≤ 2 | ≤ 2 | O=C1NC(=O)C2CN(c3nc(OC[C@@]45CCCN4C[C@H](F)C5)nc4c3CCN(c3cc(O)cc5ccc(F)c(Br)c35)C4)CC12 (stereo partly drawn) [Example 226, 5-(7-(8-bromo-7-fluoro-3-hydroxynaphthalen-1-yl)-2-(((2R,7aS)-2-fluorohexahydro-1H-pyrrolizin-7a-yl)methoxy)-5,6,7,8-tetrahydropyrido[3,4-d]pyrimidin-4-yl)tetrahydropyrrolo[3,4-c]pyrrole-1,3(2H,3aH)-dione] | – | – | – |
